{
  "source": "patent US9956319B2",
  "about": "“Compositions useful as antibiofilm or antimicrobial agents and methods using same” (BAYLOR COLLEGE OF MEDICINE, priority 2012, dated 2018)",
  "key": {"MRSA": {"tested_on": "MRSA", "experiment": "Zones of inhibition of impregnated catheter segments, modified Kirby-Bauer method", "assay_type": "cell-based, Staphylococcus aureus", "protocol": "To evaluate the antimicrobial activity of central venous catheters treated with α-lipoic acid or its combination with gentamicin, segments of 7 French triple lumen polyurethane central venous catheters were impregnated with α-lipoic acid, gentamicin, or the combination of lipoic acid and gentamicin using the same patented method described in Example 1 with 50 mg/ml of each agent (for the final solution volume). After the impregnation process and drying, zones of inhibition were performed on one-centimeter segments according to a modified Kirby-Bauer method against MSSE, MRSE, MRSA, K. pneumoniae, E. coli, P. mirabilis, Pseudomonas aeruginosa, and Candida albicans. Each segment was half embedded in the center of a Muller-Hinton agar plate that had been previously inoculated with an individual organism. Prior to placing the catheter segments in agar, each organism was grown for 18 hours in TSB to a concentration of 0.5 McFarland (10^8 cfu/ml). A cotton swab was placed in the suspension and streaked across the surface of the Muller-Hinton agar plate to cover the entire plate. All plates were placed in a 37° C. incubator for 24 hours. Zones were measured in mm after the incubation period (Table 2).\nTo evaluate the antimicrobial activity of central venous catheters treated with α-lipoic acid or its combination with doxycycline, segments of 7 French triple lumen polyurethane central venous catheters were impregnated with doxycycline or the combinations of α-lipoic acid and doxycycline using the same patented method described in Example 1 (U.S. Pat. No. 6,589,591) with 50 mg/ml of each agent (for the final solution volume). After the impregnation process and drying, zones of inhibition were performed on one-centimeter segments according to a modified Kirby-Bauer method against MSSE, MRSE, MRSA, K. pneumoniae, E. coli, P. aeruginosa, P. mirabilis, and C. albicans as described in Example 2. Zones of inhibition were measured in mm after the incubation period (Table 3).\n(§1) To evaluate the antimicrobial activity of central venous catheters treated with lipoamide or its combination with levofloxacin, segments of 7 French triple lumen polyurethane central venous catheters were impregnated with levofloxacin or the combinations of lipoamide and levofloxacin using the same patented method described in Example 1 (U.S. Pat. No. 6,589,591) with 100 mg/ml (final solution volume) of each agent. After the impregnation process and drying, zones of inhibition were performed on one-centimeter segments according to a modified Kirby-Bauer method against MSSE, MRSE, MRSA, vancomycin-resistant Enterococcus (VRE), K. pneumoniae, E. coli, P. aeruginosa, P. mirabilis, and C. albicans as described in Example 2. Zones of inhibition were measured in mm after the incubation period (Table 4).\nas §1, with “doxycycline,” for “levofloxacin,”, “doxycycline” for “levofloxacin”, “5).” for “4).”\nTo evaluate the antimicrobial activity of central venous catheters treated with dihydrolipoic acid, segments of 7 French triple lumen polyurethane central venous catheters were impregnated with dihydrolipoic acid using the same patented method described in Example 1 (U.S. Pat. No. 6,589,591) with 25 mg/ml (final solution volume) of the agent. […]"}, "common pathogens": {"tested_on": "common pathogens", "experiment": "Anticolonization activity of impregnated central venous catheters, overall result in words", "assay_type": "cell-based", "conditions": "result in words summarising the culture results", "protocol": "Catheter segments were then placed in the impregnating solution at 55° C. with agitation for 1 hour in the dark. Catheter segments were then removed from the solution and dried under a fume hood overnight in the dark. Catheter segments were rinsed with deionized water the next day and let dry for another 18 hours in the dark. After the impregnation process and drying, one-centimeter segments of impregnated catheters were individually placed in 1 ml of 10^5 cfu/ml suspensions of methicillin-sensitive Staphylococcus epidermidis (MSSE), methicillin-resistant Staphylococcus epidermidis (MRSE), methicillin-resistant Staphylococcus aureus (MRSA), Klebsiella pneumoniae, Escherichia coli, or Proteus mirabilis in trypticase soy broth (TSB) at 37° C. for 24 hours. One-centimeter segments of non-impregnated catheters were also incubated individually in each bacterial suspension at 37° C. for 24 hours as controls. Catheter segments were removed from each bacterial suspension after this period, shaken to remove excess broth containing free-floating bacteria from their surfaces, placed in 1 ml of normal saline, sonicated for 5 minutes, and vortexed for 30 seconds.\nAliquots of each suspension and subsequent dilutions were cultured quantitatively.\nTo evaluate the anticolonization/antimicrobial activity of central venous catheters treated with lipoamide, segments of 7 French triple lumen polyurethane central venous catheters were impregnated with lipoamide using the same patented method described in Example 1 (U.S. Pat. No. 6,589,591) with 100 mg/ml (final solution volume) of the agent. After the impregnation process and drying, Catheter segments were then placed in the impregnating solution at 55° C. with agitation for 1 hour in the dark. Catheter segments were then removed from the solution and dried under a fume hood overnight in the dark. Catheter segments were rinsed with deionized water the next day and let dry for another 18 hours in the dark. […]"}},
  "data": [
    {"smiles": "NC(=O)CCCCC1CCSS1", "note": "(stereo not drawn) [Lipoamide, lipoamide]", "values": [
      {"measurement": "zone of inhibition at 100000 µg/mL", "setting": "MRSA; Staphylococcus aureus, catheter impregnated with 100 mg/ml of each agent", "result": 10, "unit": "mm"},
      {"measurement": "bacterial cells adhered to treated catheter segments compared to control uncoated catheter segments", "setting": "common pathogens", "result": "substantially fewer or no bacterial cells adhered to them"}
    ]},
    {"smiles": "O=C(O)CCCCC(S)CCS", "note": "(stereo not drawn) [Dihydrolipoic acid, 6,8-dimercaptooctanoic acid]", "values": [
      {"measurement": "Zones of inhibition", "setting": "MRSA; catheter impregnated with 25 mg/ml of the agent", "result": 24, "unit": "mm"},
      {"measurement": "bacterial cells adhered to treated catheter segments compared to control uncoated catheter segments", "setting": "common pathogens", "result": "substantially fewer bacterial cells adhered to them"}
    ]},
    {"smiles": "O=C(O)CCCCC1CCSS1", "note": "(stereo not drawn) [Lipoic acid, 1,2-dithiolane-3-pentanoic acid]", "values": [
      {"measurement": "zone of inhibition at 50000 µg/mL", "setting": "MRSA; Staphylococcus aureus, catheter impregnated with 50 mg/ml of each agent, 37° C., 24 hours", "result": 13, "unit": "mm"},
      {"measurement": "bacterial cells adhered to treated catheter segments compared to control uncoated catheter segments", "setting": "common pathogens", "result": "substantially fewer or no bacterial cells adhered to them"}
    ]}
  ]
}
